Literature values as cited in US20140044784A1, “COMBINED FORMULATION WITH IMPROVED STABILITY” (BORYUNG PHARMACEUTICAL CO., LTD, priority 2011, published 2014).

Conditions: daily administration of a low dose (about 80 mg)

CC(=O)Oc1ccccc1C(=O)O [aspirin, acetylsalicylic acid]
Reduction of heart attack, stroke, and cardiovascular mortalities: at least 25%
